{"source": "patent US9809640B2", "about": "“ApoE peptide dimers and uses thereof” (priority 2010, dated 2017)", "key": {"[1]": {"test_system": "Ramos cell line of Burkitt's lymphoma", "experiment": "Growth of Ramos cells in culture", "assay_type": "cell-based", "conditions": "read-out: EC50 growth inhibition in culture"}, "[2]": {"experiment": "Mouse toxicity, maximum tolerated dose by intravenous injection", "conditions": "in vivo, maximum dose by intravenous injection without deaths after 24 hrs", "source_text": "We also evaluated the various peptides for efficacy in suppressing nitric oxide production induced by LPS stimulation of BV2 microglia cells as a measure of anti-inflammatory activity as well as the maximum dose tolerated in mice (Table I and FIG. 6A). For the LPS assay, EC50 is the concentration of compound that caused a 50% suppression of nitric oxide release from BV2 cells following LPS stimulation. For mouse toxicity, MTD is the maximum dose of the compound that can be given by intravenous injection without causing deaths after 24 hrs. […] Coupling the ApoE domain to a protein transduction domain further enhanced the potency of the dimers."}, "[3]": {"test_system": "MDA-MB-231 xenografts", "experiment": "MDA-MB-231 TNBC xenografts in NSG mice", "assay_type": "in vivo", "conditions": "both xenograft studies", "procedure": "FIGS. 30A-30B. Inhibition of triple negative breast cancer (TNBC) tumor growth in xenografts with COG449 treatment. FIG. 30A: 4×10^6 MDA-MB-231 cells were injected with Matrigel into the 4th mammary glands of immune compromised mice and treated daily by subcutaneous injection of 10 mg/kg COG449 starting at day 10. FIG. 30B: 4×10^6 MDA-MB-231 cells were injected with Matrigel into the 4th mammary glands of immune compromised mice and treated by intravenous tail vein injection 3× week at 1 mg/kg starting at day 27 post injection. Tumor volume was determined by caliper measurement.\nTo begin assessment of the potential of combination therapies with COG449, we analyzed the effect of treating MDA-231 cells with sub-lethal doses of COG449 and the multi-kinase inhibitor Sorafenib or the EGFR inhibitor Gefitinib at concentrations below their ED50 doses. […] We also evaluated the effects of COG449 in vivo using xenograft experiments. To determine whether COG449 might be effective against TNBC tumors in xenografts, immune compromised NOD/SCID gamma-chain null (NSG) mice were injected with MDA-231 cells into their 4th mammary glands. Once tumors became palpable at around 10 days, tumors were treated by twice weekly subcutaneous injection of COG449 at 10 mg/kg. At 28 days post-xenograft, daily intra-tumor injection of COG449 was initiated and continued until sacrifice (FIG. 30A). […]"}, "[4]": {"test_system": "U87MG glioblastoma cells", "assay_type": "cell-based", "conditions": "MTT", "procedure": "FIG. 14A: Dose response curve of COG445 on proliferation of U87 (open circles) and MDA-MB-231 (filled circles) cells as measured by MTT reduction. FIG. 14B: Dose response curve of COG445 on proliferation of MDA-MB-231 cells as measured by cell count.\nTo determine whether ApoE peptide dimers were cytotoxic to other types of cancer, we evaluated the effect of three different ApoE BMOE-linked peptide dimers (COG449, COG492, COG493; see Table I) on the growth characteristics of U87MG glioblastoma cells. Various concentrations of COG449, COG492, COG493 or Sorafenib were used to treat U87MG glioblastoma cells and viable cells were quanititated using MTT. Sorafenib, which has previously been reported to be cytotoxic to glioblastoma cells (Yang et al. (2010) Mol Cancer Ther., Vol. 9(4):953-962), was used as a positive control.\nBecause COG445 inhibited Akt activation and downstream signaling, we examined the effects of COG445 on cellular proliferation. Adherent MB231 and U87 cells were grown for ˜24 hours in the presence of COG445 and cellular proliferation was measured by MTT reduction. […] Furthermore, COG445 inhibited MB231 cellular proliferation as determined by cell count (FIG. 14B). Approximately 6×10^4 cells were plated in growth media (RPMI+10% FBS) for 24-hours with increasing concentrations of COG445. […] However at concentrations ≧1 μM COG445, there appears to be a loss of cells. This is partially explained by decreased proliferation, although it is possible that the rate of cellular degradation was increased in the presence of COG445."}, "[5]": {"test_system": "CLL cells", "conditions": "24 h", "procedure": "We next sought to determine whether SET antagonism would destabilize Mcl-1. Destabilization of Mcl-1 by treatment with SET antagonists was evaluated by treating primary human CLL cells for 24 hr with the ApoE peptide dimer COG449 (a BMOE-linked dimer of COG112; see Example 2) and evaluating the level of Mcl-1 in the cells."}, "[6]": {"test_system": "PP2A", "experiment": "PP2A activity in 32D:BCR/Abl chronic myelogenous leukemia cells (PP2A immunoprecipitation assay)", "assay_type": "cell-based", "conditions": "1 μM, 30 minutes", "procedure": "FIGS. 4A-4B. The BMOE-linked dimer peptide COG449 activates PP2A in CML cells. FIG. 4A: 32D-BCR/Abl chronic myelogenous leukemia cells were treated with COG449 (1 μM), COG445 (1 μM) (disulfide-linked COG112 dimer) or no treatment, and the PP2A activity was measured. FIG. 4B: 32D:BCR/Abl cell cultures were treated with no compound, 1 μM COG449, or 5 μM FTY720 for 30 minutes followed by lysis in an NP40 lysis buffer. PP2A was immunoprecipitated and assayed with the PP2A Immunoprecipitation assay kit (Upstate) according to the manufacturer's directions.\nTo further evaluate the effect of COG449, we measured the ability of the stable dimerized COG449 compound to activate PP2A in 32D:p210^BCR/Abl chronic myelogenous leukemia cells. […] 32D:p210^BCR/Abl chronic myelogenous leukemia cells were treated with no compound, 1 μM COG449, or 5 μM FTY720. We observed a robust increase of approximately 45% relative specific activity (phosphate release/minute/unit protein) of PP2A upon treatment with COG449 alone when compared to the untreated control, and about 20% activation compared with FTY720 (FIG. 4B)."}, "[7]": {"test_system": "MDA-231 cells", "experiment": "Combination treatment of MDA-231 cells (MTT)", "assay_type": "cell-based", "conditions": "sub-lethal doses, 48 hrs, greater than either compound alone", "procedure": "FIG. 29. Combination treatment with COG449 and sorafenib or gefitinb on triple negative breast cancer (TNBC) cell line growth. MDA-231 cells were grown in the presence of COG449, sorafenib, or gefitinb at sub-lethal doses as indicated. After 48 hrs, live cells were quantified using the MTT assay. *** indicates p<0.001.\nTo begin assessment of the potential of combination therapies with COG449, we analyzed the effect of treating MDA-231 cells with sub-lethal doses of COG449 and the multi-kinase inhibitor Sorafenib or the EGFR inhibitor Gefitinib at concentrations below their ED50 doses. […] We also evaluated the effects of COG449 in vivo using xenograft experiments. To determine whether COG449 might be effective against TNBC tumors in xenografts, immune compromised NOD/SCID gamma-chain null (NSG) mice were injected with MDA-231 cells into their 4th mammary glands. Once tumors became palpable at around 10 days, tumors were treated by […] subcutaneous injection of COG449 at 10 mg/kg. At 28 days post-xenograft, daily intra-tumor injection of COG449 was initiated and continued until sacrifice (FIG. 30A). In order to use a more clinically relevant treatment paradigm, MDA-231 xenografted mice were treated 3-times a week with 1 mg/kg COG449 by intravenous injection (FIG. 30B)."}, "[8]": {"experiment": "Cytotoxicity on normal B-cells from volunteers", "assay_type": "cell-based, human", "conditions": "human, normal B-cells from volunteers", "description": "Blood from CLL patients was collected and CD5+/CD19+ CLL cells were isolated using the RosetteSep™ Human B-Cell Enrichment Cocktail, according to the manufacturer's instructions, and treated with COG compounds. Compounds were applied to B-CLL cells (2.5×10^5 cells/well in a 96 well plate), after which the cells were treated for 72 hours.\nNormal B-cells from volunteers and B-CLL cells from patients are isolated using the RosetteSep™ Human B Cell Enrichment Cocktail according to the manufacturer's instructions. This method depletes whole blood of T cells, monocytes, and NK cells using a proprietary antibody cocktail that cross-links unwanted cells in human whole blood to multiple red blood cells (RBCs) forming immunorosettes. This increases the density of the unwanted (rosetted) cells, such that they pellet along with the free RBCs when centrifuged over a buoyant density medium such as Ficoll-Paque®. This leaves the highly enriched B-cell or B-CLL cells at the interface between Ficoll and the plasma. The antibodies in the cocktail contain anti-CD14, anti-CD2 and anti-CD16 antibodies to remove T cells, monocytes, and NK cells, respectively. The purity of these B-cell and B-CLL preparations is then determined by flow cytometry. Preparations typically average less than 2% CD3+ T-cells and less than 0.5% CD14+ monocytes. In the case of B-CLL cell isolation, we routinely obtain preparations that contain less than 1.5% normal CD19+/CD5− B-cells using this method."}, "[9]": {"test_system": "breast cancer cell lines", "experiment": "Cytotoxicity in breast cancer cell lines by cell counting", "assay_type": "cell-based, human", "conditions": "serum-free media, 24 hrs", "procedure": "FIG. 28. Cytotoxic effects of COG449 in breast cancer cells. Cell lines were grown in serum-free media and COG449 as indicated for 24 hrs. Cellular proliferation was measured by cell counting. Cell number is represented relative to control, untreated cells."}, "[10]": {"experiment": "Tolerability of COG449 by intravenous infusion", "assay_type": "in vivo"}}, "note": "Starred links: 1 amine or outer side, 2 acyl side, 3 side chain; linkers in the order of their positions; H or OH if unused. Positions of bridges follow the written chain, without caps; N, C: chain ends. Chains are numbered I, II in the order given. BMOE = O=C1CC([*:1])C(=O)N1CCN1C(=O)CC([*:2])C1=O"}
{"substance": "I: Ac-RQIKIWFQNRRMKWKKCLRVRLASHLRKLRKRLL-NH2 / II: Ac-RQIKIWFQNRRMKWKKCLRVRLASHLRKLRKRLL-NH2 (linker I:17-II:17 via BMOE) [COG449, COG112-C-BMOE-C-COG112]", "values": [{"measurement": "EC50", "setting": "[1]", "value": 125, "unit": "nM"}, {"measurement": "MTD at 24 h", "setting": "[2]", "value": 12, "unit": "mg/kg"}, {"measurement": "cytotoxic effects in mice", "setting": "[3]", "value": "No cytotoxic effects"}, {"measurement": "cytotoxicity to U87MG cells", "setting": "[4]", "value": "cytotoxic"}, {"measurement": "EC50", "setting": "[5]", "value": "~110", "unit": "nM"}, {"measurement": "increase of relative specific activity of PP2A compared to untreated control", "setting": "[6]", "value": "approximately 45%"}, {"measurement": "cytotoxic effect in combination with Gefitinib", "setting": "[7]", "value": "robust cytotoxic effect"}, {"measurement": "cytotoxic effect in combination with Sorafenib", "setting": "[7]", "value": "robust cytotoxic effect"}, {"measurement": "EC50 at 72 h", "setting": "[8]", "value": "> 10000", "unit": "nM"}, {"measurement": "cytotoxicity to breast cancer cell lines incl. MDA-231, MDA-468, HCC38", "setting": "[9]", "value": "cytotoxic to all cell lines"}, {"measurement": "first adverse events", "setting": "[10]; 20 mg/kg", "value": "mild edema in the front paws and lethargy"}, {"measurement": "adverse effects", "setting": "[10]; intravenous infusion, 10-15 mg/kg", "value": "without any observed adverse effects"}]}
